SMILES strings stand for the structures.

By EC50 is commonly meant the concentration giving half of the maximal effect.

The target of the first experiment is T1, full length AKT E17K (Homo sapiens, UniProt P31749, E17K).
T1 construct: host or cells: HEK-293 (ATCC CRL-1573)
T1 sequence (P31749 whole entry E17K): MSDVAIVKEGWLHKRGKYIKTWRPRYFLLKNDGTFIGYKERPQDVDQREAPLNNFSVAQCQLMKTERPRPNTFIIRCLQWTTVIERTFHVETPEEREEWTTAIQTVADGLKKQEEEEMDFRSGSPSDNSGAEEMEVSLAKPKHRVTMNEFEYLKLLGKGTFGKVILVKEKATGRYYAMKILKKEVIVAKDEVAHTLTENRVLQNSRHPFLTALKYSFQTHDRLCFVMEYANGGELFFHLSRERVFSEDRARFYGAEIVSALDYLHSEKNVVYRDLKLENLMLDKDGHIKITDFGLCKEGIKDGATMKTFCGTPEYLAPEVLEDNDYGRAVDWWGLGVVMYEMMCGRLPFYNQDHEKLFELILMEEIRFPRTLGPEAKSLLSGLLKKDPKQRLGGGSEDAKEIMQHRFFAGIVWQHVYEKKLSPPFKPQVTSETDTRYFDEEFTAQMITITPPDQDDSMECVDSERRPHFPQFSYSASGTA
In words: NanoBRET Target Engagement (TE) Intracellular Kinase Assay. Type of experiment: cell-based.
Conditions: not given
In a few lines: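 Live-cell BRET assay: cells expressing NanoLuc-fused full-length AKT E17K incubated 2 h with tracer at target-optimized concentration plus compound. BRET read at 450 nm donor/600 nm acceptor with extracellular NanoLuc inhibitor. EC50 from sigmoidal variable-slope fit of tracer displacement.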
Background: In BRET a luciferase serves as donor, and the signal depends on an acceptor being close.
`COc1c(N2C3CCC2CN(Cc2ccc(-n4c(-c5cccnc5N)nc5ccc(-c6ccccc6)nc54)cc2)C3)c(=O)c1=O` [Example 72, 3-(3-(4-(2-(2-aminopyridin-3-yl)-5-phenyl-3H-imidazo[4,5-b]pyridin-3-yl)benzyl)-3,8-diazabicyclo[3.2.1]octan-8-yl)-4-methoxycyclobut-3-ene-1,2-dione] gave an EC50 of 0.06 to 0.6 µM.

Molecule `CCOc1c(N2CCC3(CC2)CN(Cc2ccc(-n4c(-c5cccnc5N)nc5ccc(-c6ccccc6)nc54)cc2)C3)c(=O)c1=O` [Example 59, 3-(2-(4-(2-(2-Aminopyridin-3-yl)-5-phenyl-3H-imidazo[4,5-b]pyridin-3-yl)benzyl)-2,7-diazaspiro[3.5]nonan-7-yl)-4-ethoxycyclobut-3-ene-1,2-dione] displayed an EC50 of 0.015 to 0.06 µM.

Consider `COc1c(N2CCN(Cc3ccc(-n4c(-c5cccnc5N)nc5ccc(-c6ccccc6)nc54)cc3)C[C@H]2C)c(=O)c1=O` [Example 67, (R)-3-(4-(4-(2-(2-aminopyridin-3-yl)-5-phenyl-3H-imidazo[4,5-b]pyridin-3-yl)benzyl)-2-methylpiperazin-1-yl)-4-methoxycyclobut-3-ene-1,2-dione], for which the EC50 was 0.06 to 0.6 µM.

In turn, `Nc1ncccc1-c1nc2ccc(-c3ccccc3)nc2n1-c1ccc(CN2CCC(Nc3c(S)c(=O)c3=O)CC2)cc1` [Example 44, 3-((1-(4-(2-(2-aminopyridin-3-yl)-5-phenyl-3H-imidazo[4,5-b]pyridin-3-yl)benzyl)piperidin-4-yl)amino)-4-mercaptocyclobut-3-ene-1,2-dione] showed an EC50 of 0.06 to 0.6 µM.

Still in this experiment, the particulars now being: read-out: NanoBRET AKT1E17K EC50; HEK-293 cells transfected with NanoLuc-AKT E17K; competitive displacement of NanoBRET tracer; 2 hr equilibration; 10-point 3-fold dilution.
With `COc1c(N2C[C@@H]3C[C@H]2CN3Cc2ccc(-n3c(-c4cccnc4N)nc4ccc(-c5ccccc5)nc43)cc2)c(=O)c1=O` [Example 75, 3-((1S,4S)-5-(4-(2-(2-aminopyridin-3-yl)-5-phenyl-3H-imidazo[4,5-b]pyridin-3-yl)benzyl)-2,5-diazabicyclo[2.2.1]heptan-2-y1)-4-methoxycyclobut-3-ene-1,2-dione], the EC50 is below 0.015 µM.

Regarding `COc1c(N(C)C2CCN(Cc3ccc(-n4c(-c5cccnc5N)nc5ccc(-c6ccccc6)nc54)cc3)CC2)c(=O)c1=O` [Example 27, 3-((1-(4-(2-(2-aminopyridin-3-yl)-5-phenyl-3H-imidazo[4,5-b]pyridin-3-yl)benzyl)piperidin-4-yl)(methyl)amino)-4-methoxycyclobut-3-ene-1,2-dione], the EC50 is below 0.015 µM.

`COc1c(N2CC3(CCN(Cc4ccc(-n5c(-c6cccnc6N)nc6ccc(-c7ccccc7)nc65)cc4)CC3)C2)c(=O)c1=O` [Example 53, 3-(7-(4-(2-(2-Aminopyridin-3-yl)-5-phenyl-3H-imidazo[4,5-b]pyridin-3-yl)benzyl)-2,7-diazaspiro[3.5]nonan-2-yl)-4-methoxycyclobut-3-ene-1,2-dione]: the concentration for a half-maximal effect (EC50) was below 0.015 µM.
